ChEMBL document CHEMBL4321812, “Structure-based rational design of staurosporine-based fluorescent probe with broad-ranging kinase affinity for kinase panel application” (Bioorg Med Chem Lett, 2019)

What was measured:
[1] = target: Non-receptor tyrosine-protein kinase TYK2 (Homo sapiens, UniProt P29597); test: Binding affinity to recombinant N-terminal His-FLAG-GST-tagged TYK2 (unknown origin) (871 to 1187 residues) expressed in baculovirus infected Sf9 insect cells incubated for 1 hr by TR-FRET assay
[2] = target: Interleukin-1 receptor-associated kinase 4 (Homo sapiens, UniProt Q9NWZ3); test: Binding affinity to recombinant full-length human N-terminal his-tagged IRAK4 expressed in baculovirus expression system using IRAK1 peptide as substrate incubated for 1 hr by TR-FRET assay
[3] = target: Mitogen-activated protein kinase 15 (Homo sapiens, UniProt Q8TD08); test: Binding affinity to recombinant full-length N-terminal His-FLAG-GST-tagged MAPK15 (unknown origin) expressed in baculovirus infected Sf9 insect cells incubated for 1 hr by TR-FRET assay
[4] = target: Fibroblast growth factor receptor 3 (Homo sapiens, UniProt P22607); test: Binding affinity to recombinant N-terminal His-FLAG-GST-tagged FGFR3 (unknown origin) (436 to 806 residues) expressed in baculovirus infected Sf9 insect cells incubated for 1 hr by TR-FRET assay
[5] = target: Receptor tyrosine-protein kinase erbB-4 (Homo sapiens, UniProt Q15303); test: Binding affinity to recombinant human full-length N-terminal GST-tagged ERBB4 expressed in baculovirus expression system using srctide as substrate incubated for 1 hr by TR-FRET assay
[6] = target: Mitogen-activated protein kinase kinase kinase kinase 1 (Homo sapiens, UniProt Q92918); test: Binding affinity to recombinant N-terminal His-FLAG-GST-tagged MAP4K1 (unknown origin) (1 to 346 residues) expressed in baculovirus infected Sf9 insect cells incubated for 1 hr by TR-FRET assay
[7] = target: Mitogen-activated protein kinase kinase kinase 2 (Homo sapiens, UniProt Q9Y2U5); test: Binding affinity to recombinant full-length N-terminal His-FLAG-GST-tagged MAP3K2 (unknown origin) (337 to 620 residues) expressed in baculovirus infected Sf9 insect cells incubated for 1 hr by TR-FRET assay
[8] = target: Mitogen-activated protein kinase kinase kinase 9 (Homo sapiens, UniProt P80192); test: Binding affinity to recombinant N-terminal His-FLAG-GST-tagged MAP3K9 (unknown origin) (110 to 422 residues) expressed in baculovirus infected Sf9 insect cells incubated for 1 hr by TR-FRET assay
[9] = target: STE20-like serine/threonine-protein kinase (Homo sapiens, UniProt Q9H2G2); test: Binding affinity to recombinant N-terminal His-FLAG-GST-tagged SLK (unknown origin) (1 to 1152 residues) expressed in baculovirus infected Sf9 insect cells incubated for 1 hr by TR-FRET assay
[10] = target: Serine/threonine-protein kinase PAK 6 (Homo sapiens, UniProt Q9NQU5); test: Binding affinity to recombinant human full-length N-terminal GST-tagged PAK6 expressed in baculovirus expression system using SGKtide as substrate incubated for 1 hr by TR-FRET assay
[11] = target: Tyrosine-protein kinase FRK (Homo sapiens, UniProt P42685); test: Binding affinity to recombinant full-length N-terminal His-FLAG-GST-tagged FRK (unknown origin) (223 to 505 residues) expressed in baculovirus infected Sf9 insect cells incubated for 1 hr […] by TR-FRET assay
[12] = target: Tyrosine-protein kinase HCK (Homo sapiens, UniProt P08631); test: Binding affinity to recombinant full-length N-terminal His-FLAG-GST-tagged HCK (unknown origin) (25 to 526 residues) expressed in baculovirus infected Sf9 insect cells incubated for 1 hr by TR-FRET assay
[13] = target: Phosphorylase b kinase gamma catalytic chain, liver/testis isoform (Homo sapiens, UniProt P15735); test: Binding affinity to recombinant full-length N-terminal His-FLAG-GST-tagged PHKG2 (unknown origin) expressed in baculovirus infected Sf9 insect cells incubated for 1 hr by TR-FRET assay
[14] = target: Citron Rho-interacting kinase (Homo sapiens, UniProt O14578); test: Binding affinity to recombinant full-length N-terminal His-FLAG-GST-tagged CIT (unknown origin) (1 to 449 residues) expressed in baculovirus infected Sf9 insect cells incubated for 1 hr by TR-FRET assay
[15] = target: Dual specificity protein kinase CLK4 (Homo sapiens, UniProt Q9HAZ1); test: Binding affinity to recombinant human full length N-terminal GST-tagged CLK4 expressed in baculovirus expression system incubated for 1 hr by TR-FRET assay
[16] = target: Testis-specific serine/threonine-protein kinase 3 (Homo sapiens, UniProt Q96PN8); test: Binding affinity to recombinant full-length N-terminal His-FLAG-GST-tagged TSSK3 (unknown origin) expressed in baculovirus infected Sf9 insect cells incubated for 1 hr by TR-FRET assay
[17] = target: Rho-associated protein kinase 1 (Homo sapiens, UniProt Q13464); test: Binding affinity to recombinant full-length N-terminal His-FLAG-GST-tagged ROCK1 (unknown origin) (1 to 477 residues) expressed in baculovirus infected Sf9 insect cells incubated for 1 hr by TR-FRET assay
[18] = target: Rho-associated protein kinase 2 (Homo sapiens, UniProt O75116); test: Binding affinity to recombinant full-length N-terminal His-FLAG-GST-tagged ROCK2 (unknown origin) (1 to 553 residues) expressed in baculovirus infected Sf9 insect cells incubated for 1 hr by TR-FRET assay
[19] = target: Ribosomal protein S6 kinase alpha-6 (Homo sapiens, UniProt Q9UK32); test: Binding affinity to recombinant full-length N-terminal His-FLAG-tagged RPS6KA6 (unknown origin) expressed in baculovirus infected Sf9 insect cells incubated for 1 hr by TR-FRET assay
[20] = target: Protein kinase C gamma type (Homo sapiens, UniProt P05129); test: Binding affinity to recombinant full-length N-terminal His-FLAG-tagged PRKCG (unknown origin) expressed in baculovirus infected Sf9 insect cells incubated for 1 hr by TR-FRET assay
[21] = target: Serine/threonine-protein kinase N2 (Homo sapiens, UniProt Q16513); test: Binding affinity to recombinant full-length N-terminal His-FLAG-GST-tagged PKN2 (unknown origin) expressed in baculovirus infected Sf9 insect cells incubated for 1 hr by TR-FRET assay
[22] = target: Cyclin-C/Cyclin-dependent kinase 19 (Homo sapiens, UniProt Q9BWU1); test: Binding affinity to recombinant human full length N-terminal GST-tagged CDK19 co-expressed with N-terminal GST-tagged CyclinC expressed in baculovirus expression system using RNA polymerase peptide as substrate incubated for 1 hr by TR-FRET assay
[23] = target: MAP/microtubule affinity-regulating kinase 3 (Homo sapiens, UniProt P27448); test: Binding affinity to recombinant full-length N-terminal His-FLAG-GST-tagged MARK3 (unknown origin) expressed in baculovirus infected Sf9 insect cells incubated for 1 hr by TR-FRET assay
[24] = target: Serine/threonine-protein kinase 16 (Homo sapiens, UniProt O75716); test: Binding affinity to recombinant full-length N-terminal His-FLAG-GST-tagged STK16 (unknown origin) expressed in baculovirus infected Sf9 insect cells incubated for 1 hr by TR-FRET assay
Chain of Serine/threonine-protein kinase 16 (O75716 whole entry): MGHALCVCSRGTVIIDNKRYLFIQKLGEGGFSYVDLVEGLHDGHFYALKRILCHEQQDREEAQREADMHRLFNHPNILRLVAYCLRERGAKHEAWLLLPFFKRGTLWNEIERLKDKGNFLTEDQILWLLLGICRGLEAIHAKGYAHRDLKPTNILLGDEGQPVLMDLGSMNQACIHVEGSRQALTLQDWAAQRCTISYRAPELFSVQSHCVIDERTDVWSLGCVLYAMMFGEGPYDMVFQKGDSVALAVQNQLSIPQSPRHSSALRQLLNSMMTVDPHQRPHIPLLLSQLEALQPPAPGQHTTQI

Chain of Dual specificity protein kinase CLK4 (Q9HAZ1 whole entry): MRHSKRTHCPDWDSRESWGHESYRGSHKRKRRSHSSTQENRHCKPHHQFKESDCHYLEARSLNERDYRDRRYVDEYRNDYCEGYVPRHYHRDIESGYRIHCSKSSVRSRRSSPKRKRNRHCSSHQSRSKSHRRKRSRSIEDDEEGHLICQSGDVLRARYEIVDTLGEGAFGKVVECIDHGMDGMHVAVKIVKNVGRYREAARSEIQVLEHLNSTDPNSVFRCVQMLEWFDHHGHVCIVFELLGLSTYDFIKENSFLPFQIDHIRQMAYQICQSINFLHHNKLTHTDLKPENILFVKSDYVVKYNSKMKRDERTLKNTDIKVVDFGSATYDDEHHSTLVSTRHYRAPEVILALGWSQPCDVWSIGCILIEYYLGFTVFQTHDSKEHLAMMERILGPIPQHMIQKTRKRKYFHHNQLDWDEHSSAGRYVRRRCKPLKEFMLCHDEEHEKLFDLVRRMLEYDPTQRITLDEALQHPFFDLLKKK
Chain of Cyclin-C/Cyclin-dependent kinase 19 (Q9BWU1 whole entry): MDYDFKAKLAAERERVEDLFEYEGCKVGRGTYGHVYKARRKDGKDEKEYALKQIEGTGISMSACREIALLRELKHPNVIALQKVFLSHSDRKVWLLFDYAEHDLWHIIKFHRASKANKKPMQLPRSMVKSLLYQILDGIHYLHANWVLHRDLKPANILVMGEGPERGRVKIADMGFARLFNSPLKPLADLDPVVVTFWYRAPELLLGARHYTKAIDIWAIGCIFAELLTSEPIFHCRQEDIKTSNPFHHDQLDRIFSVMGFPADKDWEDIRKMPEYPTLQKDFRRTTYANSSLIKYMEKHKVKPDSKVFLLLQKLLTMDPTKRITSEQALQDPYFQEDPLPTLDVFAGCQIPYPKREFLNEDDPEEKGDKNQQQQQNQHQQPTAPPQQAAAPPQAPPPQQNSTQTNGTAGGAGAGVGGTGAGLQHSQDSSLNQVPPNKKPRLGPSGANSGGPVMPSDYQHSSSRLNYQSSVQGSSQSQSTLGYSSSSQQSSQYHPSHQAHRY
Chain of Cyclin-C/Cyclin-dependent kinase 19 (P24863 whole entry, further chain): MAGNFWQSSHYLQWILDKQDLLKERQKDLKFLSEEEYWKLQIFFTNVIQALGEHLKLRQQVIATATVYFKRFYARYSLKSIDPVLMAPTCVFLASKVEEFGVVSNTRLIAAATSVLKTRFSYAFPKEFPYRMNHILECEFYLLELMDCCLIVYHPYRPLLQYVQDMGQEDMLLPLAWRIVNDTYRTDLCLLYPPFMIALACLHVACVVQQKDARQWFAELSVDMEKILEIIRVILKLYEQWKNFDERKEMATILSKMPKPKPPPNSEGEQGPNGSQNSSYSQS
Chain of Tyrosine-protein kinase FRK (P42685 whole entry, the tested form may be a part): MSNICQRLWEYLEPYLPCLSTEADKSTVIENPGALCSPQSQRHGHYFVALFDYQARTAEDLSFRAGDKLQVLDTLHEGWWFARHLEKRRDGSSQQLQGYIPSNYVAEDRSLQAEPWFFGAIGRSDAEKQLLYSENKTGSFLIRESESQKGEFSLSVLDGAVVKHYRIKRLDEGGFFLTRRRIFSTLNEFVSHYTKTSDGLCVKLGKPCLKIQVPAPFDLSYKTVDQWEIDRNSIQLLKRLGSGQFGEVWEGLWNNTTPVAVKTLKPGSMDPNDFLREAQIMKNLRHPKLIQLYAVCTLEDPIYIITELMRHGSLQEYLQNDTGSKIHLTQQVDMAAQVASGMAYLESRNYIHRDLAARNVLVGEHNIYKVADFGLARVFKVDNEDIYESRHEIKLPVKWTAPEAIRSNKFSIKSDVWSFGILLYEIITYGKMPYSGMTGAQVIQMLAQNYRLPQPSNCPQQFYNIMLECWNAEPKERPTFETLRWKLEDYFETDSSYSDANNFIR
Chain of Interleukin-1 receptor-associated kinase 4 (Q9NWZ3 whole entry): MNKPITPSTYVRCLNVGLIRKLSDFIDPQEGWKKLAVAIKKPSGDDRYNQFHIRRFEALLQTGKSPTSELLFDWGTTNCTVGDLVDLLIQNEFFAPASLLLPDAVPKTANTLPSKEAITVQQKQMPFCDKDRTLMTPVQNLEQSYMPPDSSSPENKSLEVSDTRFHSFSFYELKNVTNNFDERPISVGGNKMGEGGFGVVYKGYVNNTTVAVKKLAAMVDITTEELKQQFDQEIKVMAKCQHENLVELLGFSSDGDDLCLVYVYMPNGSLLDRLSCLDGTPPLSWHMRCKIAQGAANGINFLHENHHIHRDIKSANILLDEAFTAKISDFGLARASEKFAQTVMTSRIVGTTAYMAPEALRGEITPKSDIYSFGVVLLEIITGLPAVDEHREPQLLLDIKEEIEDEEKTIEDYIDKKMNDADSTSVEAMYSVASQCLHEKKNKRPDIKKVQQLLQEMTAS
Chain of Mitogen-activated protein kinase 15 (Q8TD08 whole entry, the tested form may be a part): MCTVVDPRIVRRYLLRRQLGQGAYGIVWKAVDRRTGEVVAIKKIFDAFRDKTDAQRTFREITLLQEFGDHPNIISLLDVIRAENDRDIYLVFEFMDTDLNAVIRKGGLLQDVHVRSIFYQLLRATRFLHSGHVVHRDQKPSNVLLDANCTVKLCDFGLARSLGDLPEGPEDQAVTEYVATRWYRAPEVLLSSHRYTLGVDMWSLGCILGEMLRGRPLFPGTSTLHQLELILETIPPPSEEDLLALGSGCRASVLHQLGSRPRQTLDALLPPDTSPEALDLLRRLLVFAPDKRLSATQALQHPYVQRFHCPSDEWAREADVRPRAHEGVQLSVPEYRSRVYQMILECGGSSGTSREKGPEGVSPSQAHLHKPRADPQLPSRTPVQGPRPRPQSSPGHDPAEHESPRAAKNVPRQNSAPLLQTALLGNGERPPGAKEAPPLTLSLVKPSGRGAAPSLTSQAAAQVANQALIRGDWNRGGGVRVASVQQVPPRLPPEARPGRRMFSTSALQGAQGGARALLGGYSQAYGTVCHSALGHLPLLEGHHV
Chain of Mitogen-activated protein kinase kinase kinase 2 (Q9Y2U5 whole entry, the tested form may be a part): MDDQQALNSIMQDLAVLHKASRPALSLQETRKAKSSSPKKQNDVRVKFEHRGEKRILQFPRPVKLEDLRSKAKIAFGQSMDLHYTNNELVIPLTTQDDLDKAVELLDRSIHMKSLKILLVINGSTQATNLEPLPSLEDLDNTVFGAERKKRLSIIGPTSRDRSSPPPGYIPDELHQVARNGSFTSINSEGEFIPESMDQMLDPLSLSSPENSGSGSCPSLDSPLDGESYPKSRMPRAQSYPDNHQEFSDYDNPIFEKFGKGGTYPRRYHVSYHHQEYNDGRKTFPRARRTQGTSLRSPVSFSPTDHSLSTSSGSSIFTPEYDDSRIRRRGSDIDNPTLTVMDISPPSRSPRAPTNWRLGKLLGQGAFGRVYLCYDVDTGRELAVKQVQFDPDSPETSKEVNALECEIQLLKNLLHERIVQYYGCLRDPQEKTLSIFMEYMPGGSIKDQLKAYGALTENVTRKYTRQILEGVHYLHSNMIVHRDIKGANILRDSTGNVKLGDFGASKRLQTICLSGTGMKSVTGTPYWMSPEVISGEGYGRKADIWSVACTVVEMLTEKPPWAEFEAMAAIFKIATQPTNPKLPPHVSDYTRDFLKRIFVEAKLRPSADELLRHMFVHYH
Chain of Mitogen-activated protein kinase kinase kinase 9 (P80192 whole entry, the tested form may be a part): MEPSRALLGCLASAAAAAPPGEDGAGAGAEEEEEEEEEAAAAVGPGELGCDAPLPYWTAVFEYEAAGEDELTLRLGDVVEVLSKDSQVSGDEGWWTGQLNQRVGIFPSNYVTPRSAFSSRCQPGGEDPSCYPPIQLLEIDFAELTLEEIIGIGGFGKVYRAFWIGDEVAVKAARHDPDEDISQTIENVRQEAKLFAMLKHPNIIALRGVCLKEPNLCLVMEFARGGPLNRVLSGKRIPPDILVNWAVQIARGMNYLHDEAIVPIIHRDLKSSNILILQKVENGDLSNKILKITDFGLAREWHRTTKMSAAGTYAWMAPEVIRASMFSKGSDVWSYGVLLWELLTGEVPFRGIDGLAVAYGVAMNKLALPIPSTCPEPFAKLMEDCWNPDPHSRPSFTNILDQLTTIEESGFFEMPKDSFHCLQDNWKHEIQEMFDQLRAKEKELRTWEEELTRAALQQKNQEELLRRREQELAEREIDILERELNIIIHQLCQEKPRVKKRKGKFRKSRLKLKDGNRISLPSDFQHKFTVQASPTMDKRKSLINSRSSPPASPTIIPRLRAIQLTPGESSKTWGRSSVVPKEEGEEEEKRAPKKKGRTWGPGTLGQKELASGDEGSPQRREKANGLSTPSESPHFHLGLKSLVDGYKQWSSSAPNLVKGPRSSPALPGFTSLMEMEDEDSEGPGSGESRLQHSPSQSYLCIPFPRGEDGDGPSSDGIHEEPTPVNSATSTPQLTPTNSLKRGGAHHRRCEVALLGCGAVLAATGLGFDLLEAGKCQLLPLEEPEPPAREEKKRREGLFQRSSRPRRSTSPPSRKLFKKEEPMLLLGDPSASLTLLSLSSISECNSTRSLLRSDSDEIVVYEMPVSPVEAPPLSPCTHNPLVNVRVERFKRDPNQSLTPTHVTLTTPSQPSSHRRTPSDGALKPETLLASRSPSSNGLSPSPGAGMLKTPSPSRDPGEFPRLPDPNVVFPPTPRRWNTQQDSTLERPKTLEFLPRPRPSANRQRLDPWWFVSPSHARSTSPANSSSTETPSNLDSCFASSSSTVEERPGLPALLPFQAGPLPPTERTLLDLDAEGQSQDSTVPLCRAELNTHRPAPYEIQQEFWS

For `CO[C@@H]1[C@H](NCCOCCOCCOCCNC(=O)CCC2=[N+]3C(=Cc4c(C)cc(C)n4[B-]3(F)F)C=C2)C[C@H]2O[C@]1(C)n1c3ccccc3c3c4c(c5c6ccccc6n2c5c31)C(=O)NC4`, which Kd [1] is on record?
Its Kd is 0.008 µM.

What about the Kd [2] of the same compound?
Its Kd is 0.023 µM.

What about the Kd [3] of the same compound?
Its Kd is 0.113 µM.

And the Kd [4]?
The Kd was 0.409 µM.

What about the Kd [5] of the same compound?
The Kd was 0.496 µM.

And the Kd [6]?
Its Kd is 0.017 µM.

And the Kd [7]?
The Kd was 0.038 µM.

And the Kd [8]?
The Kd was 0.002 µM.

What about the Kd [9] of the same compound?
The Kd was 0.005 µM.

What about the Kd [10] of the same compound?
The Kd was 0.022 µM.

And the Kd [11]?
The Kd was 0.332 µM.

And the Kd [12]?
The Kd was 0.263 µM.

What about the Kd [13] of the same compound?
Its Kd is 0.071 µM.

And the Kd [14]?
The Kd was 0.747 µM.

And the Kd [15]?
Its Kd is 0.09 µM.

What about the Kd [16] of the same compound?
The Kd was 0.38 µM.

What about the Kd [17] of the same compound?
The Kd was 0.035 µM.

What about the Kd [18] of the same compound?
Its Kd is 0.023 µM.

And the Kd [19]?
Its Kd is 0.021 µM.

And the Kd [20]?
The Kd was 0.072 µM.

What about the Kd [21] of the same compound?
The Kd was 0.006 µM.

What about the Kd [22] of the same compound?
Its Kd is 0.259 µM.

And the Kd [23]?
Its Kd is 0.013 µM.

What about the Kd [24] of the same compound?
Its Kd is 0.365 µM.

With `CO[C@@H]1[C@H](N(C)CCOCCOCCOCCNC(=O)CCC2=[N+]3C(=Cc4c(C)cc(C)n4[B-]3(F)F)C=C2)C[C@H]2O[C@]1(C)n1c3ccccc3c3c4c(c5c6ccccc6n2c5c31)C(=O)NC4` as the compound, how does the Kd [1] read?
Its Kd is 0.049 µM.

And the Kd [2]?
The Kd was 0.075 µM.

What about the Kd [3] of the same compound?
Its Kd is 0.306 µM.

What about the Kd [4] of the same compound?
The Kd was 0.848 µM.

And the Kd [5]?
The Kd was 0.798 µM.

What about the Kd [6] of the same compound?
Its Kd is 0.024 µM.

And the Kd [7]?
Its Kd is 0.053 µM.

What about the Kd [8] of the same compound?
Its Kd is 0.003 µM.

What about the Kd [9] of the same compound?
Its Kd is 0.006 µM.

And the Kd [10]?
Its Kd is 0.025 µM.

And the Kd [11]?
The Kd was 0.372 µM.

What about the Kd [12] of the same compound?
The Kd was 0.28 µM.

And the Kd [13]?
The Kd was 0.072 µM.

And the Kd [14]?
Its Kd is 0.71 µM.

What about the Kd [15] of the same compound?
Its Kd is 0.081 µM.

And the Kd [16]?
Its Kd is 0.33 µM.

And the Kd [17]?
Its Kd is 0.026 µM.

What about the Kd [18] of the same compound?
The Kd was 0.016 µM.

And the Kd [19]?
The Kd was 0.014 µM.

What about the Kd [20] of the same compound?
The Kd was 0.046 µM.

And the Kd [21]?
Its Kd is 0.004 µM.

What about the Kd [22] of the same compound?
Its Kd is 0.125 µM.

And the Kd [23]?
The Kd was 0.006 µM.

And the Kd [24]?
Its Kd is 0.11 µM.
